In experiment [1] the target is Somatostatin receptor type 2 (Mus musculus, UniProt P30875).
Experiment [2] deals with Somatostatin receptor type 3 (Mus musculus, UniProt P30935).

Each structure is given as a SMILES string. pKi: −log10 of the molar value. Bridge positions count the residues as written; N and C are the ends. Square brackets hold non-standard residues; d marks the D form. Peptide text beside a SMILES is read from it. * marks the point of attachment. X1 = CC(O)[C@H](CO)N*

Sequence of Somatostatin receptor type 3 (P30935 whole entry): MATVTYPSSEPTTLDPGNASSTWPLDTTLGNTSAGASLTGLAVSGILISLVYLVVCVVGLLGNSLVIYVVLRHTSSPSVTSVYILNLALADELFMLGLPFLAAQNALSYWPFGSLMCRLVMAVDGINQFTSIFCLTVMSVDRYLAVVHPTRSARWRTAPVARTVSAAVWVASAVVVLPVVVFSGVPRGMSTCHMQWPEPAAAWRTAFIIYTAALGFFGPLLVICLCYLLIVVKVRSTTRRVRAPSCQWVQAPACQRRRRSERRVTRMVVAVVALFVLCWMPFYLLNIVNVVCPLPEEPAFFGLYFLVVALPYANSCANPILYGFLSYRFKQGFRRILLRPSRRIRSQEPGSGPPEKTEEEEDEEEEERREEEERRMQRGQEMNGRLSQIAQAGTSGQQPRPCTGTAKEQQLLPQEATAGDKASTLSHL
Sequence of Somatostatin receptor type 2 (P30875 whole entry): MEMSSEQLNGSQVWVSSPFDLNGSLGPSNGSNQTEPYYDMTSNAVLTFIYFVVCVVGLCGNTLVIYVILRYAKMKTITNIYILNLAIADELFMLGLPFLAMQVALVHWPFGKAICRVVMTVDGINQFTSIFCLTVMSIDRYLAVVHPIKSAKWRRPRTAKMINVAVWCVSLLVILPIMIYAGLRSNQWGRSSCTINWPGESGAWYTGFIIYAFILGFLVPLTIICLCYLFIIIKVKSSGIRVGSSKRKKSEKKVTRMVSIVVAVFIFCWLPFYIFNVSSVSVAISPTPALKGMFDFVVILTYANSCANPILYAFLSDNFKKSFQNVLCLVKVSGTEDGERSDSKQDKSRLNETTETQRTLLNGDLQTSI

As a reminder, the pKi is the negative decadic logarithm of the Ki, by convention in mol/L. Read a high pKi as a low Ki. Regarding `CC(C)[C@@H]1NC(=O)[C@H](CCCCN)NC(=O)[C@@H](Cc2c[nH]c3ccccc23)NC(=O)[C@H](Cc2ccc(O)cc2)NC(=O)[C@H](C)N(C)C(=O)[C@H](Cc2ccccc2)NC1=O` [CAS_3086456], the figures for the pKi in experiment [1] and in experiment [2] were 10.15 and 6.57, respectively.

Turning to `CC(O)[C@H](CO)NC(=O)[C@@H]1CSSC[C@H](NC(=O)[C@H](N)Cc2ccccc2)C(=O)N[C@@H](Cc2ccccc2)C(=O)N[C@H](Cc2c[nH]c3ccccc23)C(=O)N[C@@H](CCCCN)C(=O)N[C@@H]([C@@H](C)O)C(=O)N1` (some centres undefined) (H-[dF]CF[dW]KTC-X1; disulfide 2-7), the values for the pKi in experiment [1] and in experiment [2] were 9.30 and 6.82, respectively.

The record behind these values is BindingDB's records for PubMed 1328199 (University of Chicago, 1992).
